Drawing on US20240182444A1, “ANTI-VIRAL COMPOUNDS” (Aligos Therapeutics, Inc., priority 2022, published 2024), this text covers EC50, CC50 and IC50 for 19 compounds.

Series [1] deals with SARS-CoV-2 B.1.1.7 lineage. The experiment in a line: microbe, parasite or virus in culture. It is filed as cell-based. The following applies: Severe acute respiratory syndrome coronavirus 2, 96 h; read-out: A549-dual_ACE2_TMPRSS2 (EC50).
In series [2] the test system is human beta-coronavirus OC43. The experiment in a line: OC43 coronavirus antiviral assay in HeLa cells. In kind it is cell-based. The following applies: Betacoronavirus 1, 144 h, OC43, 6 days at 33° C., cell-titer-glo. As to the method:
(§1) The human beta-coronavirus OC43 was purchased from ATCC (Manassas, VA) and propagated using HCT-8 human colorectal epithelial cells (ATCC). HeLa human cervical epithelial cells (ATCC) were used as susceptible host cell lines and were cultured using EMEM media, supplemented with 10% fetal bovine serum (FBS), 1% (v/v) penicillin/streptomycin (P/S), 1% (v/v) HEPES and 1% (v/v) cellgro Glutagro™ supplement (all Corning, Manassas, VA) at 37° C. For the OC43 antiviral assay, 1.5×10^4 HeLa cells per well were plated in 100 μL complete media in white 96-well plates with clear bottoms at 37° C. for up to 24 h to facilitate attachment and allow cells to recover from seeding stresses. Next day, the cell culture medium was removed. Serially diluted compounds in 100 μL assay media (EMEM, 2% FBS, 1% P/S, 1% cellgro Glutagro™ supplement, 1% HEPES) were added to the cells and incubated for 4 h at 37° C. in a humidified 5% CO2 incubator. 100 μL of OC43 virus stock was diluted to a concentration known to produce optimal cytopathic effect, inducing 80-90% reduction in cell viability. 96-well plates were incubated for 6 days at 33° C.; each plate contains uninfected control wells as well as virus-infected wells that were not treated with compound. Cytotoxicity plates without the addition of OC43 virus were carried out in parallel. At the end of the incubation period, 100 μL cell culture supernatant was replaced with 100 μL cell-titer-glo reagent (Promega, Madison, WI) and incubated for at least 10 min at rt prior to measuring luminescence. Luminescence was measured on a Perkin Elmer (Waltham, MA) Envision plate reader. Antiviral % inhibition was calculated as follows: [(Compound treated cells infected sample)−(no compound infected control)]/[(Uninfected control)−(no compound infected control)]*100; Using GraphPad (San Diego, CA) prism software version 8.3.1, the antiviral dose-response plot was generated as a sigmoidal fit, log(inhibitor) vs response-variable slope (four parameters) model and the EC50 was calculated which is the predicted compound concentration corresponding to a 50% inhibition of the viral cytopathic effect.
(§2) Table 2 indicates related EC50 and CC50 values for the tested compounds ‘A’ indicates an EC50<100 nM, ‘B’ indicates an EC50 of ≥100 nM and <1000 nM, ‘C’ indicates an EC50≥1000 nM and <10000 nM and ‘D’ indicates an EC50≥10000 nM and <100000 nM. For CC50, the values are reported in micromolar (M), ‘A’ indicates a CC50≥10000 nM and ‘B’ indicates a CC50≥1 μM and <10 μM.

Series [3] can be described thus: Cytotoxicity in HeLa cells without OC43 virus. It is filed as cell-based. The conditions noted are these: human, HeLa cells (uninfected), in parallel. Here is the method:
as §1, §2

The next series deals with T1, SARS-Cov-2 3CLpro (Severe acute respiratory syndrome coronavirus 2, UniProt P0DTD1).
T1 construct: 3CLpro was added using a Multidrop Combi
In words: SARS-Cov-2 3CLpro protease assay (SAMDI-MS). In kind it is biochemical.

Another series can be described thus: in vitro. The following applies: human.
The mark [4] stands for this setting: 30 mins preincubation, duplex peptide substrates, read-out: SARS-Cov-2 (3CLpro IC50).

One may read the EC50 as the concentration giving half of the maximal effect.

Where two headings read alike, the source gives them in different places.

For the compound `COc1cccc2cncc([C@@H](C#N)NC(=O)[C@@H]3[C@@H]4[C@H](CN3C(=O)[C@@H](NC(=O)C(F)(F)F)C(C)(C)C)[C@H]3C[C@@H]4[C@H](F)C3)c12` [Compound 28], the EC50 in series [1] and in series [2] was less than 0.1 µM throughout. This compound also registered a CC50 at 6 days in series [3] of no less than 10 µM. The IC50 at SARS-Cov-2 3CLpro (setting [4]) is less than 0.02 µM. In the series “in vitro”, this compound gave a CC50 greater than 1 µM.
As to `CC(C)(C)[C@H](NC(=O)C(F)(F)F)C(=O)N1CCC2(CC2)C[C@H]1C(=O)NC(C#N)c1cnn2ccccc12` (stereo partly drawn) [Compound 18], the EC50 in series [1] and in series [2] was 0.1 to 1 µM throughout. In series [3], this compound registered a CC50 at 6 days of no less than 10 µM. Also, the IC50 on SARS-Cov-2 3CLpro (setting [4]) is less than 0.02 µM. The CC50 in the series “in vitro” is greater than 1 µM.
Consider `CC(C)(C)[C@H](NC(=O)C(F)(F)F)C(=O)N1C[C@@H]2[C@H]3C[C@@H]([C@@H]2[C@H]1C(=O)NC(C#N)c1cncc2c1OCCO2)[C@H](F)C3` (stereo partly drawn) [Compound 27], for which the EC50 in series [1] is no less than 1 µM; in series [2] it was 1 to 10 µM. The CC50 at 6 days in series [3] is no less than 10 µM. The IC50 at SARS-Cov-2 3CLpro (setting [4]) was 0.02 to 0.2 µM. The compound also showed a CC50 in the series “in vitro” greater than 1 µM.
The matching figures for `CC(C)(C)[C@H](NC(=O)C(F)(F)F)C(=O)N1CC2(CC2)C[C@H]1C(=O)NC(C#N)c1cnn2ccccc12` (stereo partly drawn) [Compound 17, (6S)—N-(cyano(pyrazolo[1,5-a]pyridin-3-yl)methyl)-5-((S)-3,3-dimethyl-2-(2,2,2-trifluoroacetamido)butanoyl)-5-azaspiro[2.4]heptane-6-carboxamide]: 0.1 to 1 µM, 0.1 to 1 µM, no less than 10 µM, 0.02 to 0.2 µM and greater than 1 µM.
The matching figures for `CC(C)(C)[C@H](NC(=O)C(F)(F)F)C(=O)N1C[C@@H]2[C@H]3C[C@@H]([C@@H]2[C@H]1C(=O)NC(C#N)c1cncc2cnccc12)[C@H](F)C3` (stereo partly drawn) [Compound 22]: 0.1 to 1 µM, 1 to 10 µM, no less than 10 µM, less than 0.02 µM and greater than 1 µM.
The matching figures for `COc1cccc2cncc(C(C#N)NC(=O)[C@@H]3[C@@H](c4ccccc4)CCN3C(=O)[C@@H](NC(=O)C(F)(F)F)C(C)(C)C)c12` (stereo partly drawn) [Compound 30]: no less than 1 µM, 1 to 10 µM, no less than 10 µM, 0.02 to 0.2 µM and greater than 1 µM.
Consider `CC(C)(C)[C@H](NC(=O)C(F)(F)F)C(=O)N1C[C@@H]2[C@@H]3CC([C@@H]2[C@H]1C(=O)NC(C#N)c1cnn(-c2ccccc2)c1)[C@H](F)C3` (stereo partly drawn) [Compound 13], for which the IC50 on SARS-Cov-2 3CLpro (setting [4]) lay in the range of 0.2 to 2 µM.
On to `CC(C)(C)[C@H](NC(=O)C(F)(F)F)C(=O)N1C[C@@H]2[C@H]3C[C@@H]([C@@H]2[C@H]1C(=O)NC(C#N)c1cnn2ccccc12)[C@H](F)C3` (stereo partly drawn) [Compound 25], for which the EC50 in series [1] and in series [2] was 0.1 to 1 µM in each case. This compound came in with a CC50 at 6 days in series [3] of no less than 10 µM. For the same compound, the IC50 at SARS-Cov-2 3CLpro (setting [4]) was less than 0.02 µM. Besides, the CC50 in “in vitro” is greater than 1 µM.
Consider `CC(C)(C)[C@H](NC(=O)C(F)(F)F)C(=O)N1C[C@H]2[C@@H]([C@H]1C(=O)NC(C#N)c1cccc3ccccc13)[C@H]1C=C[C@@H]2C1` (stereo partly drawn) [Compound 16], for which the EC50 in series [1] was no less than 1 µM. Besides, the IC50 at SARS-Cov-2 3CLpro (setting [4]) lay in the range of 0.2 to 2 µM. Besides, the CC50 in “in vitro” was greater than 1 µM.
Regarding `CC(C)(C)[C@H](NC(=O)C(F)(F)F)C(=O)N1C[C@@H]2[C@H]3C[C@@H]([C@@H]2[C@H]1C(=O)NC(C#N)c1cncc2cccnc12)[C@H](F)C3` (stereo partly drawn) [Compound 9, (1S,2R,3S,6R,7S,9R)—N-[cyano(1,6-naphthyridin-8-yl)methyl]-4-[(2S)-3,3-dimethyl-2-(2,2,2-trifluoroacetamido)butanoyl]-9-fluoro-4-azatricyclo[5.2.1.0^{2,6}]decane-3-carboxamide], the EC50 in series [1] and in series [2] was less than 0.1 µM throughout. Besides, the CC50 at 6 days in series [3] was no less than 10 µM. Moreover, the IC50 at SARS-Cov-2 3CLpro (setting [4]) was less than 0.02 µM. Moreover, in the series “in vitro”, the CC50 was greater than 1 µM.
Take `CC(C)(C)[C@H](NC(=O)C(F)(F)F)C(=O)N1C[C@@H]2[C@@H]3C[C@H]([C@@H]2[C@H]1C(=O)NC(C#N)c1cncc(-c2ccccc2)c1)[C@H](F)C3` (stereo partly drawn) [Compound 14]: the EC50 in series [1] is 0.1 to 1 µM; in series [2], 10 to 100 µM. In addition, the CC50 at 6 days in series [3] was no less than 10 µM. Moreover, in “in vitro”, the CC50 is greater than 1 µM.
As to `CC(C)(C)[C@H](NC(=O)C(F)(F)F)C(=O)N1C[C@@H]2[C@H]3C[C@@H]([C@@H]2[C@H]1C(=O)NC(C#N)c1cncn1-c1ccccc1)[C@H](F)C3` (stereo partly drawn) [Compound 23], the EC50 in series [1] is no less than 1 µM. For the same compound, the IC50 was 0.02 to 0.2 µM on SARS-Cov-2 3CLpro (setting [4]) and greater than 0.5 µM at SARS-Cov-2 3CLpro (bound given in table footnote, read-out: SARS-Cov-2 activity (footnote of Table 1)). The compound further came in with a CC50 in “in vitro” greater than 1 µM.
With `CC(C)(C)[C@H](NC(=O)C(F)(F)F)C(=O)N1C[C@@H]2[C@@H]3CC([C@@H]2[C@H]1C(=O)NC(C#N)c1cncc(-c2ccccc2)c1)[C@H](F)C3` (stereo partly drawn) [Compound 14], on SARS-Cov-2 3CLpro (setting [4]), the IC50 was less than 0.02 µM.
Still for that read-out and setting: under `C#CC(NC(=O)[C@@H]1[C@@H]2[C@H](CN1C(=O)[C@@H](NC(=O)C(F)(F)F)C(C)(C)C)[C@H]1C[C@@H]2[C@H](F)C1)c1cncc2ccccc12` (stereo partly drawn) [Compound 32, (1S,3aR,4S,6R,7S,7aR)-2-((S)-3,3-dimethyl-2-(2,2,2-trifluoroacetamido)butanoyl)-6-fluoro-N-(1-(isoquinolin-4-yl)prop-2-yn-1-yl)octahydro-1H-4,7-methanoisoindole-1-carboxamide] stands 0.02 to 0.2 µM.
For `CC(C)(C)[C@H](NC(=O)C(F)(F)F)C(=O)N1C[C@H]2[C@@H]([C@H]1C(=O)NC(C#N)c1cncc3ccccc13)C2(C)C` (stereo partly drawn) [Compound 11, (1R,2S,5S)—N-[cyano(isoquinolin-4-yl)methyl]-3-[(2S)-3,3-dimethyl-2-(2,2,2-trifluoroacetamido)butanoyl]-6,6-dimethyl-3-azabicyclo[3.1.0]hexane-2-carboxamide], the EC50 in series [1] and in series [2] was less than 0.1 µM in each case. In series [3], this compound gave a CC50 at 6 days of no less than 10 µM. Besides, the CC50 in “in vitro” was greater than 1 µM.
`CC(C)(C)[C@H](NC(=O)C(F)(F)F)C(=O)N1C[C@@H]2[C@@H]3C[C@H]([C@@H]2[C@H]1C(=O)NC(C#N)c1cnn(-c2ccccc2)c1)[C@H](F)C3` (stereo partly drawn) [Compound 13]: the EC50 in series [1] is no less than 1 µM. The compound further came in with a CC50 in “in vitro” greater than 1 µM.
`CC(C)(C)[C@H](NC(=O)C(F)(F)F)C(=O)N1C[C@H]2[C@@H]([C@H]1C(=O)NC(C#N)c1nc[nH]n1)[C@H]1C=C[C@@H]2C1` (stereo partly drawn) [Compound 4, (1R,2S,3S,6R,7S)—N-[cyano(1H-1,2,4-triazol-3-yl)methyl]-4-[(2S)-3,3-dimethyl-2-(2,2,2-trifluoroacetamido)butanoyl]-4-azatricyclo[5.2.1.0^{2,6}]dec-8-ene-3-carboxamide]: the EC50 in series [2] lay in the range of 1 to 10 µM. The CC50 at 6 days in series [3] was no less than 10 µM. For the same compound, on SARS-Cov-2 3CLpro (setting [4]), the IC50 lay within 0.2 to 2 µM.
On to `N#CC(NC(=O)C1[C@@H]2[C@H](CN1C(=O)c1cnn(-c3ccccc3C(F)(F)F)c1)[C@H]1C[C@@H]2[C@H](F)C1)c1cncc2ccccc12` (stereo partly drawn) [Compound 12, (1S,2R,3S,6R,7S,9R)—N-[cyano(isoquinolin-4-yl)methyl]-9-fluoro-4-{1-[2-(trifluoromethyl)phenyl]pyrazole-4-carbonyl}-4-azatricyclo[5.2.1.0^{2,6}]decane-3-carboxamide], for which the EC50 in series [1] is no less than 1 µM. In addition, the IC50 on SARS-Cov-2 3CLpro (setting [4]) was 0.02 to 0.2 µM. Besides, the CC50 in the series “in vitro” is greater than 1 µM.
The matching figures for `Cc1ncc2ccccc2c1C(C#N)NC(=O)[C@@H]1[C@@H]2[C@H](CN1C(=O)[C@@H](NC(=O)C(F)(F)F)C(C)(C)C)[C@@H]1C=C[C@H]2C1` (stereo partly drawn) [Compound 21]: no less than 1 µM, 2 to 20 µM and greater than 1 µM.
